ChEMBL document CHEMBL4765300, “Discovery of a chiral fluorinated azetidin-2-one as a tubulin polymerisation inhibitor with potent antitumour efficacy” (Eur J Med Chem, 2020)
Values after ≈ are worked out from the molar mass of the structure shown.

Experiments:
[1] = Metabolic stability in human liver microsomes assessed as parent compound remaining at 10 uM measured after 60 mins in presence of NADPH by LC/MS/MS analysis; assay type: ADME, Microsome; conditions: read-out: Stabilty
[2] = Intrinsic clearance in human liver microsomes at 10 uM incubated for 60 mins in presence of NADPH by LC/MS/MS analysis; assay type: ADME, Microsome; conditions: read-out: CLH
[3] = Metabolic stability in human liver microsomes assessed as parent compound remaining at 10 uM measured after 20 mins in presence of NADPH by LC/MS/MS analysis; assay type: ADME, Microsome; conditions: read-out: Stabilty
[4] = Metabolic stability in human liver microsomes assessed as parent compound remaining at 10 uM measured after 10 mins in presence of NADPH by LC/MS/MS analysis; assay type: ADME, Microsome; conditions: read-out: Stabilty
[5] = Half life in human liver microsomes at 10 uM in presence of NADPH by LC/MS/MS analysis; assay type: ADME, Microsome
[6] = Metabolic stability in human liver microsomes assessed as parent compound remaining at 10 uM measured after 30 mins in presence of NADPH by LC/MS/MS analysis; assay type: ADME, Microsome; conditions: read-out: Stabilty
physchem = conditions: phosphate buffer, pH 7.4
[7] = Metabolic stability in human liver microsomes assessed as parent compound remaining at 10 uM measured after 5 mins in presence of NADPH by LC/MS/MS analysis; assay type: ADME, Microsome; conditions: read-out: Stabilty

Structure (SMILES)	remaining at 1 h, 10 µM [1] [%]	CLint scaled at 10 µM [2] [mL/min/kg]	remaining at 20 min, 10 µM [3] [%]	remaining at 10 min, 10 µM [4] [%]	half-life at 10 µM [5] [min]	remaining at 0.5 h, 10 µM [6] [%]	solubility at 10 min (physchem) [µg/mL]	remaining at 5 min, 10 µM [7] [%]
COc1ccc([C@H]2[C@H](CF)C(=O)N2c2cc(OC)c(OC)c(OC)c2)cc1O	73	< 8.6	88.4	91.6	> 145	90.9	41.1 (≈ 105 µM)	85.6
COc1ccc(/C=C\c2cc(OC)c(OC)c(OC)c2)cc1O [COMBRETASTATIN A4]	5.2	89.5	37.2	57.1	13.9	17.5	1.04 (≈ 3.29 µM)	74.1
